Tests used:
NRAS Q61R = NRAS Q61R (Homo sapiens (Human), UniProt P01111+P62937, Q61R); test: Ras-Raf (BRAF RBD) disruption / FRET / MOA assay, NRAS Q61R; type: biochemical; settings: NRAS Q61R; Ras-Raf disruption/FRET/MOA assay; read-out: IC50* NRAS Q61R FRET data
In short: (§1)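 Compounds were tested as a 10-point 3-fold dilution series from 30 μM final for their ability to drive ternary complex formation between nucleotide-loaded Ras and cyclophilin A, displacing the BRAF RBD. After 3 h at 25° C., anti-His Eu-W1024 (10 nM) and anti-GST allophycocyanin (50 nM) were added for 1.5 h. A TR-FRET ratio decrease versus DMSO gave IC50.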

KRAS G12S = KRAS G12S (Homo sapiens (Human), UniProt P01116+P62937, G12S); test: Ras-Raf (BRAF RBD) disruption / FRET / MOA assay, KRAS G12S; type: biochemical; settings: Ras-Raf disruption/FRET/MOA assay; class symbols; read-out: KRAS G12S FRET data IC50
In short: (§2)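 Ternary complex formation (Ras–compound–cyclophilin A) displacing BRAF RBD, monitored by TR-FRET. Three hours at 25° C with compound (top 30 μM final), then 1.5 h with the labelled antibodies. Lower ratio than DMSO indicates disruption; IC50 reported.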

NCI-H358 (K-Ras G12C) = test: CellTiter-Glo cell viability assay, NCI-H358; type: cell-based, human; settings: Homo sapiens, NCI-H358, 120 h, NCI-H358, 5-day treatment; class symbols; read-out: Additional H358 Cell Viability assay data (K-Ras G12C, IC50)
In short: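 Luminescent viability readout on day 5 after direct compound addition to plated cells; plates sat ~30 min at room temperature before reading. Values expressed as percent of mean DMSO signal, curves fit with a four-parameter logistic model.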

KRAS WT = KRAS WT (Homo sapiens (Human), UniProt P01116+P62937); test: Ras-Raf (BRAF RBD) disruption / FRET / MOA assay, KRAS WT; type: biochemical; settings: read-out: IC50* KRAS WT FRET data
In short: as §2

NRAS Q61K = NRAS Q61K (Homo sapiens (Human), UniProt P01111+P62937, Q61K); test: Ras-Raf (BRAF RBD) disruption / FRET / MOA assay, NRAS Q61K; type: biochemical; settings: NRAS Q61K; Ras-Raf disruption/FRET/MOA assay; read-out: IC50* NRAS Q61K FRET data
In short: as §1

KRAS Q61H = KRAS Q61H (Homo sapiens (Human), UniProt P01116+P62937, Q61H); test: Ras-Raf (BRAF RBD) disruption / FRET / MOA assay, KRAS Q61H; type: biochemical; settings: Ras-Raf disruption/FRET/MOA assay; class symbols; read-out: KRAS Q61H FRET data IC50
In short: as §1

K-Ras G13C = K-Ras G13C (Homo sapiens (Human), UniProt P01116+P62937, G13C); test: Ras-Raf (BRAF RBD) disruption / FRET / MOA assay, KRAS G13C; type: biochemical; settings: KRAS G13C; Ras-Raf disruption/FRET/MOA assay; read-out: IC50* KRAS G13C FRET data
In short: as §2

Chain of NRAS Q61K (P01111 whole entry Q61K): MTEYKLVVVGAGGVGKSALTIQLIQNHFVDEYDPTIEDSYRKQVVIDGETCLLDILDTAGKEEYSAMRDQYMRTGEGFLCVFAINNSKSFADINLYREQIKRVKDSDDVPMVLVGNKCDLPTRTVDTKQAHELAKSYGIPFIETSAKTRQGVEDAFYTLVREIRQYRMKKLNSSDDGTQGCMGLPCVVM
Chain of NRAS Q61K (P62937 whole entry): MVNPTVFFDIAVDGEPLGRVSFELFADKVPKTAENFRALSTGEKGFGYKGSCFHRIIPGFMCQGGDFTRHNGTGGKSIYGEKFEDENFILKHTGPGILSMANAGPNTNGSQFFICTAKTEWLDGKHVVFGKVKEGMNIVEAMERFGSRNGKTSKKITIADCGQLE
Chain of KRAS G12S (P01116-2 other isoform, or with tags, fused parts or gaps G12S): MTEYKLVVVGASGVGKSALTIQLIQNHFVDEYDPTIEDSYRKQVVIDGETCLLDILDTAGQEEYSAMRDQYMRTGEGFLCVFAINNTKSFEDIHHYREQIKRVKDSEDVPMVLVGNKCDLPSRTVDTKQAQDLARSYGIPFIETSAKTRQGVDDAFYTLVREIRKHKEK
Chain of KRAS G12S (P62937 whole entry): as the sequence (P62937 whole entry) above
Chain of KRAS WT (P01116-2 other isoform, or with tags, fused parts or gaps): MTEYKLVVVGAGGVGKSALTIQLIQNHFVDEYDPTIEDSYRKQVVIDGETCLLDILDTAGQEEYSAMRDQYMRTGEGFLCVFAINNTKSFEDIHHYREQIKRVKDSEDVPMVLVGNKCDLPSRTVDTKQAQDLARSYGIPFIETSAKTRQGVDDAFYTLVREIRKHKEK
Chain of KRAS WT (P62937 whole entry): as the sequence (P62937 whole entry) above
Chain of NRAS Q61R (P01111 whole entry Q61R): as the sequence (P01111 whole entry Q61K) above, with K61R counted along it
Chain of NRAS Q61R (P62937 whole entry): as the sequence (P62937 whole entry) above
Chain of K-Ras G13C (P01116-2 other isoform, or with tags, fused parts or gaps G13C): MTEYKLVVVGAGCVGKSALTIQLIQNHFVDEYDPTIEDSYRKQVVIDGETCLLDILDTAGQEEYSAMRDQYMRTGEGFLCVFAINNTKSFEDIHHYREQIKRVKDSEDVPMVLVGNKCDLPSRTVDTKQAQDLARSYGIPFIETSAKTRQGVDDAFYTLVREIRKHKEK
Chain of K-Ras G13C (P62937 whole entry): as the sequence (P62937 whole entry) above
Chain of KRAS Q61H (P01116-2 other isoform, or with tags, fused parts or gaps Q61H): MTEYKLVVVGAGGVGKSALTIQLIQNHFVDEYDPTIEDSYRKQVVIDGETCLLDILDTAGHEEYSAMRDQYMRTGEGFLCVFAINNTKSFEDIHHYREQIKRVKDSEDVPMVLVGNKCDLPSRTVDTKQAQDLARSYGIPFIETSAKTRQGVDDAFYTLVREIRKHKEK
Chain of KRAS Q61H (P62937 whole entry): as the sequence (P62937 whole entry) above

SMILES	IC50 (NRAS Q61R) [nM]	IC50 (KRAS G12S) [nM]	IC50 (NCI-H358 (K-Ras G12C)) [nM]	IC50 (KRAS WT) [nM]	IC50 (NRAS Q61K) [nM]	IC50 (KRAS Q61H) [nM]	IC50 (K-Ras G13C) [nM]
CO[C@@H](C)c1ncccc1-c1c2c3cc(ccc3n1CC(F)(F)F)-c1csc(n1)C[C@H](NC(=O)[C@H](C(C)C)N(C)C(=O)N1CCN(C(=O)/C=C/CN(C)C)C3(CC3)C1)C(=O)N1CCC[C@H](N1)C(=O)OCC(C)(C)C2 (atropisomer, axis not shown) [Example A664]	10 to 100	10 to 100	10 to 100	10 to 100	10 to 100	10 to 100	10 to 100
C=CC(=O)N1CC(N2CCN(C(=O)N(C)[C@H](C(=O)N[C@H]3Cc4nc(cs4)-c4ccc5c(c4)c(c(-c4cccnc4[C@H](C)OC)n5CC)CC(C)(C)COC(=O)[C@@H]4CCCN(N4)C3=O)C(C)C)CC2)C1 (atropisomer, axis not shown) [Example A668]	100 to 1000	100 to 1000	10 to 100	100 to 1000	10 to 100	10 to 100	10 to 100
CO[C@@H](C)c1ncccc1-c1c2c3cc(ccc3n1CC(F)(F)F)-c1nc(co1)C[C@H](NC(=O)[C@@H](COC1CN(C(=O)C#CC(C)(C)N(C)C)C1)C(C)C)C(=O)N1CCC[C@H](N1)C(=O)OCC(C)(C)C2 (atropisomer, axis not shown) [Example A674]	> 10000	> 10000	< 10	> 10000	> 10000	1000 to 10000	1000 to 10000
C=CC(=O)N1CC[C@@]2(COCCN2C(=O)N(C)[C@H](C(=O)N[C@H]2Cc3nc(cs3)-c3ccc4c(c3)c(c(-c3cccnc3[C@H](C)OC)n4CC)CC(C)(C)COC(=O)[C@@H]3CCCN(N3)C2=O)C(C)C)C1 (atropisomer, axis not shown) [Example A677]	100 to 1000	100 to 1000	< 10	100 to 1000	100 to 1000	100 to 1000	1000 to 10000
C=CC(=O)N1CCC2(CC1)CCN2C(=O)N(C)[C@H](C(=O)N[C@H]1Cc2nc(cs2)-c2ccc3c(c2)c(c(-c2cccnc2[C@H](C)OC)n3CC)CC(C)(C)COC(=O)[C@@H]2CCCN(N2)C1=O)C(C)C (atropisomer, axis not shown) [Example A678]	10 to 100	100 to 1000	10 to 100	100 to 1000	10 to 100	10 to 100	100 to 1000
CCn1c(-c2cccnc2[C@H](C)OC)c2c3cc(ccc31)-c1csc(n1)C[C@H](NC(=O)[C@H](C(C)C)N(C)C(=O)N1CCC3(CC1)CN(C(=O)/C=C/C(F)F)C3)C(=O)N1CCC[C@H](N1)C(=O)OCC(C)(C)C2 (atropisomer, axis not shown) [Example A683]	100 to 1000	100 to 1000	10 to 100	100 to 1000	10 to 100	10 to 100	< 10
C=CC(=O)N1CC[C@H](C(=O)N(C)[C@H](C(=O)N[C@H]2Cc3cccc(c3)-c3ccc4c(c3)c(c(-c3cccnc3[C@H](C)OC)n4CC)CC(C)(C)COC(=O)[C@@H]3CCCN(N3)C2=O)C(C)(C)F)C1 (atropisomer, axis not shown) [Example A693]	1000 to 10000	1000 to 10000	100 to 1000	1000 to 10000	1000 to 10000	1000 to 10000	1000 to 10000
C=CC(=O)N1CCC2(CCN(C(=O)N(C)[C@H](C(=O)N[C@H]3Cc4nc(cs4)-c4ccc5c(c4)c(c(-c4cccnc4[C@H](C)OC)n5CC)CC(C)(C)COC(=O)[C@@H]4CCCN(N4)C3=O)C(C)C)CC2)C1 (atropisomer, axis not shown) [Example A698]	100 to 1000	100 to 1000	10 to 100	100 to 1000	10 to 100	10 to 100	10 to 100
CCn1c(-c2cccnc2[C@H](C)OC)c2c3cc(ccc31)-c1csc(n1)C[C@H](NC(=O)[C@H](C(C)C)N(C)C(=O)N1CCN(C(=O)/C=C/CN(C)C)C3(CC3)C1)C(=O)N1CCC[C@H](N1)C(=O)OCC(C)(C)C2 (atropisomer, axis not shown) [Example A701]	100 to 1000	100 to 1000	10 to 100	100 to 1000	10 to 100	10 to 100	100 to 1000
C=CC(=O)N1CCC2(CC1)CN(C(=O)N(C)[C@H](C(=O)N[C@H]1Cc3nc(cs3)-c3ccc4c(c3)c(c(-c3cccnc3[C@H](C)OC)n4CC)CC(C)(C)COC(=O)[C@@H]3CCCN(N3)C1=O)C(C)C)C2 (atropisomer, axis not shown) [Example A702]	100 to 1000	100 to 1000	10 to 100	100 to 1000	10 to 100	10 to 100	100 to 1000
C=CC(=O)N(C)[C@H]1C[C@@H](N(C)C(=O)N(C)[C@H](C(=O)N[C@H]2Cc3nc(cs3)-c3ccc4c(c3)c(c(-c3cccnc3[C@H](C)OC)n4CC)CC(C)(C)COC(=O)[C@@H]3CCCN(N3)C2=O)C(C)C)C1 (atropisomer, axis not shown) [Example A704]	10 to 100	100 to 1000	< 10	10 to 100	10 to 100	10 to 100	100 to 1000
C=CC(=O)N(C)[C@H]1C[C@H](N(C)C(=O)N(C)[C@H](C(=O)N[C@H]2Cc3nc(cs3)-c3ccc4c(c3)c(c(-c3cccnc3[C@H](C)OC)n4CC)CC(C)(C)COC(=O)[C@@H]3CCCN(N3)C2=O)C(C)C)C1 (atropisomer, axis not shown) [Example A712]	10 to 100	10 to 100	< 10	10 to 100	10 to 100	10 to 100	100 to 1000
C=CC(=O)N1CCO[C@@H]2CN(C(=O)N(C)[C@H](C(=O)N[C@H]3Cc4nc(cs4)-c4ccc5c(c4)c(c(-c4cccnc4[C@H](C)OC)n5CC)CC(C)(C)COC(=O)[C@@H]4CCCN(N4)C3=O)C(C)C)C[C@@H]21 (atropisomer, axis not shown) [Example A714]	100 to 1000	100 to 1000	< 10	100 to 1000	100 to 1000	100 to 1000	10 to 100
CCn1c(-c2cccnc2[C@H](C)OC)c2c3cc(ccc31)N1CCC[C@@H](C[C@H](NC(=O)[C@@H](COC3CN(C(=O)C#CC(C)(C)N(C)C)C3)C(C)C)C(=O)N3CCC[C@H](N3)C(=O)OCC(C)(C)C2)C1 (atropisomer, axis not shown) [Example A715, (2R)-2-(((1-(4-(dimethylamino)-4-methylpent-2-ynoyl)azetidin-3-yl)oxy)methyl)-N-((2^3S,6^3S,4S)-1^1-ethyl-1^2-(2-((S)-1-methoxyethyl)pyridin-3-yl)-10,10-dimethyl-5,7-dioxo-6^1,6^2,6^3,6^4,6^5,6^6-hexahydro-1^1H-8-oxa-1(5,3)-indola-6(1,3)-pyridazina-2(1,3)-piperidinacycloundecaphane-4-yl)-3-methylbutanamide]	> 10000	> 10000	10 to 100	> 10000	> 10000	> 10000	> 10000
C=CC(=O)N1CCN(C(=O)N(C)[C@H](C(=O)N[C@H]2Cc3nc(cs3)-c3ccc4c(c3)c(c(-c3cccnc3[C@H](C)OC)n4CC)CC(C)(C)COC(=O)[C@@H]3CCCN(N3)C2=O)C(C)C)[C@@H]2CC[C@@H]21 (atropisomer, axis not shown) [Example A718]	100 to 1000	100 to 1000	< 10	100 to 1000	10 to 100	10 to 100	10 to 100
C=CC(=O)N1CC[C@]2(CCN(C(=O)N(C)[C@H](C(=O)N[C@H]3Cc4nc(cs4)-c4ccc5c(c4)c(c(-c4cccnc4[C@H](C)OC)n5CC)CC(C)(C)COC(=O)[C@@H]4CCCN(N4)C3=O)C(C)C)C2)C1 (atropisomer, axis not shown) [Example A719]	10 to 100	100 to 1000	10 to 100	100 to 1000	10 to 100	10 to 100	10 to 100
C=CC(=O)N1CC(OC[C@H](C(=O)N[C@H]2Cc3cc(F)cc(c3)-c3ccc4c(c3)c(c(-c3cccnc3[C@H](C)OC)n4CC(F)(F)F)CC(C)(C)COC(=O)[C@@H]3CCCN(N3)C2=O)C(C)C)C1 (atropisomer, axis not shown) [Example A725]	1000 to 10000	1000 to 10000	10 to 100	1000 to 10000	1000 to 10000	100 to 1000	100 to 1000
